Experimental data from publication PMC10844371 (Diabetologia, 2023).
Where “and” joins values, the source holds several entries; their conditions need not be identical. Identical values can stand only once.

What was measured:
[1] = tested on: isolated mouse pancreatic islets; experiment: Insulin secretion in isolated mouse islets (RIA); format: cell-based
Description: (§1) Mouse islets were used acutely, except for studies with PTX, wherein islets were treated overnight with the toxin. Human islets were maintained in culture for up to 48 h in RPMI medium containing 10% (vol./vol.) FCS, 1% (vol./vol.) penicillin/streptomycin and 5 mmol/l glucose. Experiments were conducted as previously described. Islets were incubated in 0.3 ml EC1 or EC2 media (ESM Table 2) supplemented with glucose and other reagents as indicated.
(§2) Insulin and somatostatin were determined by RIA (Millipore and Diasource ImmunoAssays, respectively) as described previously. In these experiments, rates of release are expressed as % of contents unless otherwise indicated.

[2] = tested on: human pancreatic islets; experiment: Glucagon secretion in human islets (ELISA); format: cell-based
Description: Human pancreatic islets were isolated (with ethical approval and clinical consent) as previously described. Islets from the pancreases of 18 healthy donors and five donors with type 2 diabetes were used (see electronic supplementary material [ESM] Table 1; ESM Human islets checklist).
as §1, with “indicated. Glucagon was determined by ELISA (Mercodia).” for “indicated.”
All data are reported, unless otherwise stated, as mean values ± SEM for the indicated number of experiments using islets from multiple mice. For hormone release studies, islets were isolated and pooled from 4–16 mice. These islets were then subdivided into groups of 12–20 size-matched islets. Each unique set of islets counted as an experiment with the experiments repeated on 2–4 days. Similarly, each unique group of human islets was treated as an experiment. […] In the Ca^2+ imaging and granule docking experiment, each cell represents an experiment making sure that cells from multiple donors/animals were used. For the in vivo experiments and the perfused pancreas, each mouse count represents an experiment. For two groupings, a t test was conducted. For multiple comparisons, one-way ANOVA was conducted. All statistical tests were performed using Graphpad Prism (version 9.1.0; graphpad.com). It was ascertained that the data were normally distributed.

[3] = tested on: mouse alpha cells; experiment: TIRF imaging of docked secretory granules in mouse alpha cells; format: cell-based
Description: (§3) Cells were imaged using total internal reflection fluorescence (TIRF) microscopy (AxioObserver Z1 with a ×100/1.45 objective [Carl Zeiss] and a diode-pumped solid state laser at 491 nm). For these measurements, EC1 was used (ESM Table 2). Images from cells infected with preproglucagon promoter (PPPG)-neuropeptide Y (NPY)-enhanced green fluorescent protein (EGFP) virus were recorded using an electron-multiplying charge-coupled device camera (Photometrics Evolve) using ZEN blue. Single images of cells were acquired to measure the number of docked granules. Incoming and outgoing granules during visiting, docking and undocking were determined from multiple frame movies as described previously. Candidate docking or undocking events were found manually as granules that approached the TIRF field with an axial component and became laterally confined for at least two frames. We defined docking as granules that remained confined for at least 1 min. Visitors were those granules that remained for <1 min after appearing at the plasma membrane. Undocking was defined as slow movement of a previously docked granule away from its docking site. Granule density was calculated using a script that used the built-in ‘find maxima’ function in ImageJ (version 1.53c; http://rsbweb.nih.gov/ij) for spot detection.

[4] = mouse, in vivo, ip
Description: C57Bl6N mice were fasted for 5 h prior to the ITTs. GLP-1(9–36) (100 µg/kg body weight) was injected intraperitoneally before or with insulin as indicated. The relative high dose of GLP-1(9–36) was used because of high basal levels of the peptide. In the control experiments, mice were injected with the saline solvent (154 mmol/l NaCl). […] Total GLP-1 was measured by ELISA (81508; Crystal Chem, Zaandam, the Netherlands; CV<10%).

[5] = target: T1, human GCGR expressed in HEK293T cells (Homo sapiens, UniProt P47871); experiment: G protein dissociation (TRUPATH BRET2 biosensor); format: cell-based
T1 construct: expressed in transfected cells; host or cells: HEK293T (ATCC CRL-3216)
Description: G protein dissociation was measured using the TRUPATH biosensor platform. TRUPATH constructs were obtained from Addgene (kit no. 1000000163 [21]). […] Cells were transfected with equal amounts of GCGR, GαsS-, Gαi1-, Gαi2-, Gαi3-, GαoA-, GαoB- or Gαz-Rluc8, Gβ3, and Gγ1-, Gγ8- or Gγ9-GFP2 (as described in [21]), and pcDNA3.1(‑) using polyethyleneimine (ESM Table 3). After 24 h, cells were seeded at 50,000 cells/well of a 0.01% poly-L-lysine-coated white 96-well plate (Greiner) and grown overnight. Cells were washed with Hanks’ Balanced Salt Solution (Lonza) buffered with 20 mmol/l HEPES (Sigma) and supplemented with 0.1% BSA (Sigma) (wt/vol.). Cells were incubated in 5 μmol/l coelenterazine 400a (Nanolight Technologies) for 5 min. […] The bioluminescence resonance energy transfer 2 (BRET2) ratio was calculated (λ515/λ400) and the time point corresponding to maximal dissociation was used to generate dose–response curves. pEC50 values were calculated using the ‘three parameter log(agonist) vs response’ model in GraphPad Prism9 (version 9.1.0; graphpad.com).

[6] = tested on: human alpha cells; experiment: TIRF imaging of docked secretory granules in human alpha cells; format: cell-based; conditions: 10 pmol/l
Description: as §3

[7] = tested on: C57Bl6N mice; experiment: Plasma glucose and glucagon during insulin-induced hypoglycaemia; format: in vivo, mouse
Description: In the experiments involving the use of REMD2.59, mice were injected intraperitoneally with the antagonist (5 mg/kg body weight in PBS) or vehicle 24 h prior to insulin-induced hypoglycaemia. Following the completion of the experiment, the mice were euthanised and the pancreases were resected and weighed.

[8] = tested on: PKA activity in alpha cells; experiment: PKA activity measurements (AKAR3) in alpha cells in intact islets; format: cell-based, mouse
Description: PKA activity was measured using AKAR3 as previously described. The cells were continuously superfused at a rate of 60 μl/min with EC4 (ESM Table 2).

[9] = tested on: isolated mouse pancreatic islets; experiment: Somatostatin secretion in isolated mouse islets (RIA); format: cell-based; conditions: 10–10,000 pmol/l, 1 mmol/l glucose
Description: as §1, with “indicated. Glucagon was determined by ELISA (Mercodia).” for “indicated.”
as §2

T1 sequence (P47871 26-477): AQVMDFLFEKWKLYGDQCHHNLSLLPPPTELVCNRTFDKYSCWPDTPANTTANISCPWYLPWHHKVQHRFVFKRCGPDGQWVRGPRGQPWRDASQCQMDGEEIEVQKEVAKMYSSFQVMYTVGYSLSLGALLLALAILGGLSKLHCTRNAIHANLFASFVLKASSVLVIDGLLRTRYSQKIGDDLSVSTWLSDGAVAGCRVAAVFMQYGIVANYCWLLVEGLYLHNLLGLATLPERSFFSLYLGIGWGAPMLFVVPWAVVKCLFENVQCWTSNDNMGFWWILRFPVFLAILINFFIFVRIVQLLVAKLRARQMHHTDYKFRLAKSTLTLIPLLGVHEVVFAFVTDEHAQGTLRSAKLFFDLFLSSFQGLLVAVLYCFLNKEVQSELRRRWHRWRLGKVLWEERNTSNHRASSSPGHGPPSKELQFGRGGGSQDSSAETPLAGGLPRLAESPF

For `CC[C@H](C)[C@H](NC(=O)[C@H](Cc1ccccc1)NC(=O)[C@H](CCC(=O)O)NC(=O)[C@H](CCCCN)NC(=O)[C@H](C)NC(=O)[C@H](C)NC(=O)[C@H](CCC(N)=O)NC(=O)CNC(=O)[C@H](CCC(=O)O)NC(=O)[C@H](CC(C)C)NC(=O)[C@H](Cc1ccc(O)cc1)NC(=O)[C@H](CO)NC(=O)[C@H](CO)NC(=O)[C@@H](NC(=O)[C@H](CC(=O)O)NC(=O)[C@H](CO)NC(=O)[C@@H](NC(=O)[C@H](Cc1ccccc1)NC(=O)[C@@H](NC(=O)CNC(=O)[C@@H](N)CCC(=O)O)[C@@H](C)O)[C@@H](C)O)C(C)C)C(=O)N[C@@H](C)C(=O)N[C@@H](Cc1c[nH]c2ccccc12)C(=O)N[C@@H](CC(C)C)C(=O)N[C@H](C(=O)N[C@@H](CCCCN)C(=O)NCC(=O)N[C@@H](CCCNC(=N)N)C(N)=O)C(C)C` [GLP-1(9–36)], the “effect on insulin secretion” value ([1]; 30 pmol/l alone, at 1 or 10 mmol/l glucose) was “did not increase insulin secretion”, the “effect on insulin secretion” value ([1]; 10–10,000 pmol/l, mouse islets, 1 mmol/l glucose) was “No stimulatory effects” and the “inhibition of glucagon secretion” value ([2]; human islets, 10 pmol/l, 1 mmol/l glucose) was ~ 50%. The glucagonostatic effect ([2]; human islets, 6 mmol/l glucose) was “exerted a glucagonostatic effect”, the glucagonostatic effect ([2]; human islets, 20 mmol/l glucose) was “not at 20 mmol/l glucose” and the “suppression of glucagon release in islets from donors with type 2 diabetes” value ([2]; islets from donors with type 2 diabetes) was “loss”. For the same compound, the “time at which reduction of docked granules was maximal” value ([3]; 10 pmol/l) was 10 min, the “reduction of the number of docked granules” value ([3]; 10 pmol/l, 1 mmol/l glucose, mouse alpha cells) was 40% and the “how granule density was reduced (docking, undocking, arrival)” value ([3]; 10 pmol/l, during 15 min) was “inhibiting granule docking and stimulating granule undocking, while not affecting the rate of arrival”. The “capacity to reduce docked granules in the presence of L-168049” value ([3]; L-168049 100 nmol/l) was “prevented”, the “capacity to reduce docked granules after PTX pretreatment” value ([3]; PTX 100 ng/ml for 16 h) was “prevented” and the “capacity to reduce docked granules in the presence of exendin(9–39)” value ([3]; exendin(9–39) 100 nmol/l, 15 min after addition) was “resistant”. For the same compound, the “effect on granule docking in the presence of ω-agatoxin” value ([3]; ω-agatoxin 200 nmol/l) was “no additive effect”, the “time for which plasma GLP-1 remained at >100 pmol/l” value [4] was greater than 45 min and the “efficacy of GoA dissociation relative to glucagon” value ([5]; GCGR, GoA, HEK293T) was ~ 10%. For the same compound, the EC50 ([5]; Gα i2, mean ± S.E.M.) was 501 nM, the pEC50 ([5]; Gα oA, mean ± S.E.M.) was 7.55±-0.52 and the increase of docking ([6]; alpha cells from donors with type 2 diabetes) was 40%. The “reduction of the number of docked granules” value ([6]; alpha cells from healthy donors, after 15 min) was 52%, the “decrease of plasma glucagon AUC during hypoglycaemia” value ([7]; 100 µg/kg i.p. at t=−15 min, AUC over 45 min after insulin, 13 or 14 mice) was 30% and ~ 30% and the “effect on hypoglycaemia-triggered increase in plasma glucagon” value ([7]; 100 µg/kg i.p. at t=−15 min, insulin 0.75 U/kg) was “slightly reduced”. The “glucagonostatic effect when administered simultaneously with insulin” value ([7]; co-injected with insulin 0.75 U/kg, p=0.53) was “No glucagonostatic effect”, the “glucagonostatic effect in the presence of REMD2.59” value ([7]; mice pretreated with REMD2.59, GLP-1(9–36) 100 µg/kg) was “no glucagonostatic effect” and the “effect on basal plasma glucagon” value ([7]; normoglycaemic conditions, prior to insulin injection, 100 µg/kg i.p.) was “not affected”. For the same compound, the “effect on PKA activity in the presence of L-168049” value ([8]; 10 and 100 pmol/l, L-168049 100 nmol/l) was “without effect”, the “inhibitory effect on PKA activity after PTX pretreatment” value ([8]; PTX pretreatment) was “abolished” and the “concentrations at which the decrease in cAMP/PKA activity was maximal” value ([8]; alpha cells in intact mouse islets) was greater than 10 pmol/L. For the same compound, the “effect on somatostatin secretion” value [9] was “No stimulatory effects”.
